Where “and” joins values, the source holds several entries; their conditions need not be identical. Equal entries are not always repeated. Where two headings read alike, the source gives them in different places.
Tests used:
μ opioid receptor (MOR) [1] = target: T1, μ opioid receptor (MOR) (Homo sapiens, UniProt P35372); assay: MOR radioligand binding assay
κ opioid receptor (KOR) [2] = target: T2, κ opioid receptor (KOR) (Homo sapiens, UniProt P41145); settings: read-out: Ki (nM) ± SD KOR; cited from earlier work
T2 sequence (P41145 whole entry): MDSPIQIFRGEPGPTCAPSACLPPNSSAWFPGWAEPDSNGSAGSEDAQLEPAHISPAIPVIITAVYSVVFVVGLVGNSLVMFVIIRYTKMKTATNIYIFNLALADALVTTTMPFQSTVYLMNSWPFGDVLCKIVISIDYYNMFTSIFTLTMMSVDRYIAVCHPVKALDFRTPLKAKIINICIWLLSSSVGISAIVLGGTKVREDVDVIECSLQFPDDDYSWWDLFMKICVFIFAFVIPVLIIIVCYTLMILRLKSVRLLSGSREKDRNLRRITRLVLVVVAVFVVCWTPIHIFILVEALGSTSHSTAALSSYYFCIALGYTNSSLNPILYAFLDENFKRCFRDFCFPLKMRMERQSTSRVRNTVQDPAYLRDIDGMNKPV

sigma-1 receptor (σ1R) [3] = target: T3, sigma-1 receptor (σ1R) (Homo sapiens, UniProt Q99720); settings: read-out: Ki (nM) ± SD σ1R; cited from earlier work
T3 sequence (Q99720 whole entry, species assumed): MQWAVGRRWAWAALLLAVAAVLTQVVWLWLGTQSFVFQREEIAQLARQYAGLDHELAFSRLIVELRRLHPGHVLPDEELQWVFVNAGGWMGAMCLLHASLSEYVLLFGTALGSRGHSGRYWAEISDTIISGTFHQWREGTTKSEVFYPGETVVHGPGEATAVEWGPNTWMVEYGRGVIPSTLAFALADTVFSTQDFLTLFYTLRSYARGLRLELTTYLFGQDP

sigma-2 receptor (σ2R) [4] = target: T4, sigma-2 receptor (σ2R) (Homo sapiens, UniProt Q5BJF2); settings: read-out: Ki (nM) ± SD σ2R; cited from earlier work
T4 sequence (Q5BJF2 whole entry): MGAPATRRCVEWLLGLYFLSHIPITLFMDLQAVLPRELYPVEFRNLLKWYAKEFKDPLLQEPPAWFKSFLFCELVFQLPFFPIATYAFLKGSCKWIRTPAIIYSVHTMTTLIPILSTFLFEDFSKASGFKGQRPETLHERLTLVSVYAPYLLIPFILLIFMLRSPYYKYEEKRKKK

KOR = target: T5, KOR (Mus musculus, UniProt P33534); assay: MVD assay, Ke with nor-BNI (KOR); assay type: cell-based; settings: Ke of nor-BNI against the listed agonist in isolated MVD; n = 5–9
T5 construct: vasa deferentia were removed from the mice; from tissue; host or cells: vas deferens of male NMRI mice
T5 sequence (P33534 whole entry): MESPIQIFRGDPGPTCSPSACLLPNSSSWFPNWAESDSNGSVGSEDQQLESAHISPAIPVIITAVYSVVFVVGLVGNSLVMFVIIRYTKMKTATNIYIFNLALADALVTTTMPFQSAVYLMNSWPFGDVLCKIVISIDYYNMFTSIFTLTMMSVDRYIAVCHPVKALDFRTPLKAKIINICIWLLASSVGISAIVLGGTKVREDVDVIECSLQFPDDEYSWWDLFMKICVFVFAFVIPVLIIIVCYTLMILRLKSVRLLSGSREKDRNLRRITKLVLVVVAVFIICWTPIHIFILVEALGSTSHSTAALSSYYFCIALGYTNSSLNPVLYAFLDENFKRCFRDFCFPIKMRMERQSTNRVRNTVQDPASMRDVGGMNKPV
Method: (§1) Isolated mouse vas deferens. The preparation of MVD was carried out as previously described by Hughes et al. [25] with minor modifications. Briefly, vasa deferentia were removed from the mice and unsheathed from the surrounding fat, connective tissue, and blood vessels. […] The upper end of the isolated organ was attached to a transducer using a thread and connected to a computer via an amplifier (PowerLab 4/20, ADInstruments, Castle Hill, NSW, Australia). The resting tension was adjusted to 0.1 g. Electrical field stimulation was applied through trains of 10 Hz with 10 rectangular impulses at a 1 ms pulse width, 9 V/cm (i.e., supramaximal intensity), repeated with 0.1 Hz (Stimulator 88, Grass Medical Instruments, Quincy, MA, USA).
(§2) Data analysis. The efficacy of each test compound to inhibit electrically evoked contraction was measured as the percentage change from baseline. […] Data are presented as the mean ± SEM. Ke values were calculated using dose ratio and the single-dose method [26]. Statistical analysis was performed with one-way ANOVA, followed by the Newman–Keuls post hoc test.

μ opioid receptor (MOR) [5] = target: T1, μ opioid receptor (MOR); settings: read-out: Ki (nM) ± SD MOR; cited from earlier work
δ opioid receptor (DOR) = δ opioid receptor (DOR) (Homo sapiens, UniProt P41143); assay: DOR radioligand binding assay
Sequence of δ opioid receptor (DOR) (P41143 whole entry): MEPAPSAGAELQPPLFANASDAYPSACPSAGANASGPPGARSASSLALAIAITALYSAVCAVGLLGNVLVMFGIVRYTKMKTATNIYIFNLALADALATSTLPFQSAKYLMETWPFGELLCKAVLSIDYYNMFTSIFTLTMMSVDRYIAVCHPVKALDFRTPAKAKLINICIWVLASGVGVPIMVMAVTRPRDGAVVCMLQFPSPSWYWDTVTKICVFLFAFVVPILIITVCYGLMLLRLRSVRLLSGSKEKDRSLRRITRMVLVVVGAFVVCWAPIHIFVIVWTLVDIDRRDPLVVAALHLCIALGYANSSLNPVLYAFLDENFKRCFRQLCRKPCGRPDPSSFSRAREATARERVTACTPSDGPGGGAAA

κ opioid receptor (KOR) [6] = target: T2, κ opioid receptor (KOR); assay: KOR radioligand binding assay
sigma-1 receptor (σ1R) [7] = target: T3, sigma-1 receptor (σ1R); assay: σ1R radioligand binding assay
Method: (§3) The radioligand binding assays and the data analysis were performed as previously reported [24].

sigma-2 receptor (σ2R) [8] = target: T4, sigma-2 receptor (σ2R); assay: σ2R radioligand binding assay
Method: as §3

mouse vas deferens (MVD) = assay: Isolated mouse vas deferens (MVD): inhibition of electrically evoked contractions; assay type: cell-based; settings: for IC50: 50% inhibitory concentration on electrically evoked contractions of isolated MVD, n = 5–9
Method: Animals. Male NMRI mice (Toxicoop Zrt., Budapest, Hungary) weighing 35–45 g were kept in groups in a temperature- and humidity-controlled room under a 12 h light/dark cycle and with food and water available ad libitum. Each animal was used for one experiment.
Isolated mouse vas deferens. The preparation of MVD was carried out as previously described by Hughes et al. with minor modifications. Briefly, vasa deferentia were removed from the mice and unsheathed from the surrounding fat, connective tissue, and blood vessels. They were then suspended between an upper (ring) and a lower (straight) electrode positioned at 5.5 cm, in 5 mL organ baths containing Krebs solution (concentrations in mM: NaCl, 118.0; NaHCO3, 25.0; KCl, 4.7; KH2PO4, 1.2; glucose, 11.0; CaCl2, 2.5; and MgSO4, 1.2) aerated with a gas mixture of 95% O2 and 5% CO2 and at a constant temperature of 36 °C. The upper end of the isolated organ was attached to a transducer using a thread and connected to a computer via an amplifier (PowerLab 4/20, ADInstruments, Castle Hill, NSW, Australia). The resting tension was adjusted to 0.1 g. Electrical field stimulation was applied through trains of 10 Hz with 10 rectangular impulses at a 1 ms pulse width, 9 V/cm (i.e., supramaximal intensity), repeated with 0.1 Hz (Stimulator 88, Grass Medical Instruments, Quincy, MA, USA).
Experimental paradigms. The experimental design of MVD required a 50 min equilibration period under electrical field stimulation, during which Krebs solution was changed every 5 min. After the equilibration period, test compounds were added cumulatively, allowing a minimum of 2 min between doses. To determine the test compounds’ dissociation constant, Ke, vasa deferentia were preincubated with the antagonist naloxone, and without washing a single concentration of the agonist test, the compound was added.
Data analysis. The efficacy of each test compound to inhibit electrically evoked contraction was measured as the percentage change from baseline. […] Data are presented as the mean ± SEM. Ke values were calculated using dose ratio and the single-dose method. […]

MOR = target: T6, MOR (Mus musculus, UniProt P42866); assay: MVD assay, Ke with naloxone / against DAMGO (MOR); assay type: cell-based; settings: for Ke ± SEM (nM) Naloxone (MOR): Ke of naloxone against the listed agonist in isolated MVD, single-dose method, n = 5–9; for functional profile at MOR: MVD, result in words
T6 construct: vasa deferentia were removed from the mice; from tissue; host or cells: vas deferens of male NMRI mice
T6 sequence (P42866 whole entry): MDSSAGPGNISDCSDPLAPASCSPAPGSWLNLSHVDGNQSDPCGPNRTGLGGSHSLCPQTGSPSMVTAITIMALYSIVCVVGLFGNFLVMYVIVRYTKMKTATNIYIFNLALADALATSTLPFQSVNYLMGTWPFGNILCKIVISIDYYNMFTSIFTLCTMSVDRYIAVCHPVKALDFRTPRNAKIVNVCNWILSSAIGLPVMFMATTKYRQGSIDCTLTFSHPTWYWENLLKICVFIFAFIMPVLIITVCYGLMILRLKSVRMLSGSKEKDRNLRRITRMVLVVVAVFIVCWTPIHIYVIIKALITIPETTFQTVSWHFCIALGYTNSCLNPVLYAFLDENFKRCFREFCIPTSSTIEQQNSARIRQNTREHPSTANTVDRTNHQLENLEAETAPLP
Method: as §1, §2

DOR = target: T7, DOR (Mus musculus, UniProt P32300); assay: MVD assay, Ke with naltrindole (DOR); assay type: cell-based; settings: Ke of naltrindole against the listed agonist in isolated MVD; n = 5–9
T7 construct: vasa deferentia were removed from the mice; from tissue; host or cells: vas deferens of male NMRI mice
T7 sequence (P32300 whole entry): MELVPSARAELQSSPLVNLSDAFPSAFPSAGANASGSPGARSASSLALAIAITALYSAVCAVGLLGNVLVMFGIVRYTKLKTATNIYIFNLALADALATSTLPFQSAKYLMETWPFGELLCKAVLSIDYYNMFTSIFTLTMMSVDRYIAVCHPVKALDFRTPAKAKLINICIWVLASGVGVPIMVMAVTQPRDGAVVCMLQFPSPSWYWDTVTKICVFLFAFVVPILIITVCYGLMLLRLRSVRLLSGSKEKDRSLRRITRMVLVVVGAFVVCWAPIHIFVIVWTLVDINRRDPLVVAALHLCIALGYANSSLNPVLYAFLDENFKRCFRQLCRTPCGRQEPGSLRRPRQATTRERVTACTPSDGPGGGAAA
Method: as §1
Experimental paradigms. The experimental design of MVD required a 50 min equilibration period under electrical field stimulation, during which Krebs solution was changed every 5 min. […]
Data analysis. The efficacy of each test compound to inhibit electrically evoked contraction was measured as the percentage change from baseline. […] Ke values were calculated using dose ratio and the single-dose method [26]. […]

Male Swiss CD1 mice = assay: Thermal acute pain model (radiant heat tail-flick test); assay type: in vivo, mouse
Method: Thermal acute pain model (tail-flick test). Male Swiss CD1 mice (Envigo Laboratories, S. Pietro al Natisone (UD)) weighing 25–30 g were housed at six per cage, kept at a constant room temperature (25 ± 1 °C), under a 12:12 h light-and-dark cycle with food and water ad libitum. Each mouse was used for only one experiment. […] The radiant heat tail-flick test consists of irradiation of the lower third of the tail with an infrared source (Ugo Basile, Comerio, Italy). The day before the experiment, performed at room temperature (25 ± 1 °C), mice were habituated to the procedure for measuring the nociception threshold. The basal predrug latency was established between 3 and 6 s and was calculated as the average of the first three measurements, which were performed at 5 min intervals. A cutoff latency of 15 s was established to minimize damage to the tail. All tested compounds were dissolved in pyrogen-free isotonic saline (Baxter Healthcare, Deerfield, IL, USA) and DMSO (5%) and were administered to mice i.p. Post-treatment tail-flick latencies (TFLs) were determined at 15, 30, 45, 60, and 90 min after i.p. injection.

Male Wistar rats = assay: Inflammatory pain model (CFA-evoked hyperalgesia, Randall–Selitto paw pressure threshold); assay type: in vivo, rat; settings: s.c.
Method: Inflammatory pain model (CFA-evoked hyperalgesia). Male Wistar rats (190–250 g) (Toxicoop Zrt., Budapest, Hungary) under brief isoflurane (Willy Rüsch GmbH, Böblingen, Germany) anesthesia received i.pl. injection of 0.15 mL complete Freund’s adjuvant (CFA) (source), a water-in-oil emulsion of killed mycobacterium, into the right hind paw. The experimental procedures were performed as described previously.
Experimental paradigms of CFA-evoked hyperalgesia. The measurement of the effect of the test compound was carried out 4 days following i.pl. CFA injection as described previously. Briefly, the baseline (pretest compound) of the paw pressure threshold (PPT) of both inflamed and noninflamed paws was determined. Next, the drug or vehicle was s.c. administered at a volume of 5 mL/kg body weight. Then, the response threshold to mechanical pressure stimulation of inflamed and noninflamed paws was given as paw pressure thresholds (PPTs) and measured at 30 and 60 min post administration using an arbitrary cutoff weight of twice the baseline.

[9] = mean ± SD of at least two experiments in duplicate, read-out: Ki (nM) ± SD MOR
[10] = mean ± SD of at least two experiments in duplicate, read-out: Ki (nM) ± SD DOR
[11] = mean ± SD of at least two experiments in duplicate, read-out: Ki (nM) ± SD KOR

T1 sequence (P35372 whole entry, species assumed): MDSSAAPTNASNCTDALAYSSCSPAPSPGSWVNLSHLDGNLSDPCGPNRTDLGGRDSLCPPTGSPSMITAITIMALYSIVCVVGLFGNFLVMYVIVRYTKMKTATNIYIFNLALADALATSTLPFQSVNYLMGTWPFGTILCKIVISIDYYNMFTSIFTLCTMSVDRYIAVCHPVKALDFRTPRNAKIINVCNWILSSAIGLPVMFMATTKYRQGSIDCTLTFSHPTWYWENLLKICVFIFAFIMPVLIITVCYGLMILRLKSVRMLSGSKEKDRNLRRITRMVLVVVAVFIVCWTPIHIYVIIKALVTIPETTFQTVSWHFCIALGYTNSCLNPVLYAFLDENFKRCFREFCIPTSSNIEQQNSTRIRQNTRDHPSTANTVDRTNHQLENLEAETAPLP

In the case of C[C@H]1[C@H]2Cc3ccc(O)cc3[C@]1(C)CCN2CCC(=O)Nc1ccccc1 [LP1], the “Ki Ratios DOR/MOR” value (μ opioid receptor (MOR) [1]; ratio of Ki DOR to Ki MOR) is given as 35.1, the “Ki Ratios KOR/MOR” value (μ opioid receptor (MOR) [1]; ratio of Ki KOR to Ki MOR) is given as 132.5 and the Ki (κ opioid receptor (KOR) [2]) is given as 110 ± 6 nM. For the same compound, the Ki (sigma-1 receptor (σ1R) [3]) was 149 ± 4 nM and the Ki (sigma-2 receptor (σ2R) [4]) was 1680 nM.

For CC1(C)SSC(C)(C)[C@@H](NC(=O)[C@@H](N)Cc2ccc(O)cc2)C(=O)NCC(=O)N[C@@H](Cc2ccccc2)C(=O)N[C@H]1C(=O)O [DPDPE], the “Ke ± SEM (nM) Nor-BNI (KOR)” value (KOR) was 2.57 ± 1.81 nM.

For CCC(=O)N(C)c1ccccc1 [N-methyl-N-phenyl-propanamide], the Ki (μ opioid receptor (MOR) [5]) is given as 65 nM.

In the case of CCC(=O)N(CC)c1ccccc1 [N-ethyl-N-phenyl-propanamide], the Ki (μ opioid receptor (MOR) [5]) is given as 136 nM.

With C[C@@H]1[C@@H]2Cc3ccc(O)cc3[C@@]1(C)CCN2CCC(=O)Nc1ccccn1 [Compound 8, 3-((2S,6S,11S)-8-hydroxy-6,11-dimethyl-1,4,5,6-tetrahydro-2,6-methanobenzo[d]azocin-3(2H)-yl)-N-(pyridin-2-yl)propanamide] the Ki (μ opioid receptor (MOR) [1]) was 563 ± 23 nM, the Ki (δ opioid receptor (DOR)) was over 10000 nM and the Ki (κ opioid receptor (KOR) [6]) was 1380 ± 20 nM. The Ki (sigma-1 receptor (σ1R) [7]) was 2510 ± 737 nM and the Ki (sigma-2 receptor (σ2R) [8]) was over 10 µM.

Work on CN1CCN(CCc2ccc(Cl)c(Cl)c2)CC1 [BD-1063, reference compound] yielded a Ki (sigma-1 receptor (σ1R) [7]; mean ± SD of at least two experiments in duplicate, read-out: Ki (nM) ± SD σ1R) of 14 ± 2.7 nM.

With C[C@@H]1[C@@H]2Cc3ccc(O)cc3[C@@]1(C)CCN2CCCC(=O)Nc1ccccc1N [Compound 6, N-(2-aminophenyl)-4-((2S,6S,11S)-8-hydroxy-6,11-dimethyl-1,4,5,6tetrahydro-2,6-methanobenzo[d]azocin-3(2H)-yl)butanamide] the Ki (μ opioid receptor (MOR) [1]; [9]) was 810 ± 15 nM, the Ki (δ opioid receptor (DOR); [10]) was 4190 ± 60 nM and the Ki (κ opioid receptor (KOR) [6]; [11]) was 2455 ± 11 nM. It also gave a Ki (sigma-1 receptor (σ1R) [7]) of 857 ± 212 nM and a Ki (sigma-2 receptor (σ2R) [8]) of over 10 µM.

With C[C@@H]1[C@@H]2Cc3ccc(O)cc3[C@@]1(C)CCN2CCC(=O)Nc1ccccc1N [Compound 4, N-(2-aminophenyl)-3-((2S,6S,11S)-8-hydroxy-6,11-dimethyl-1,4,5,6-tetrahydro-2,6-methanobenzo[d]azocin-3(2H)-yl)propanamide] the Ki (μ opioid receptor (MOR) [1]) was 408 ± 11 nM, the Ki (δ opioid receptor (DOR)) was 3120 ± 73 nM and the Ki (κ opioid receptor (KOR) [6]) was 154 ± 6 nM. For the same compound, the Ki (sigma-1 receptor (σ1R) [7]) was 729 ± 168 nM and the Ki (sigma-2 receptor (σ2R) [8]) was over 10 µM.

In the case of CC[C@@]12CCN(CC3CC3)C(C(=O)c3ccc(O)cc31)[C@@H]2C [EKC, reference compound], the IC50 (mouse vas deferens (MVD)) is reported as 0.0141 ± 0.00069 µM, the “Ke ± SEM (nM) Naloxone (MOR)” value (MOR) is reported as 8.82 ± 0.52 nM and the “Ke ± SEM (nM) Naltrindole (DOR)” value (DOR) is reported as 11.47 ± 5.35 nM. The “Ke ± SEM (nM) Nor-BNI (KOR)” value (KOR) was 1.76 ± 0.35 nM.

For C[C@H]1[C@H]2Cc3ccc(O)cc3[C@]1(C)CCN2CCCC(=O)Nc1ccccc1N [Compound 5, N-(2-aminophenyl)-4-((2R,6R,11R)-8-hydroxy-6,11-dimethyl-1,4,5,6tetrahydro-2,6-methanobenzo[d]azocin-3(2H)-yl)butanamide], the Ki (μ opioid receptor (MOR) [1]; [9]) was 479 ± 10 nM, the Ki (δ opioid receptor (DOR); [10]) was 1030 ± 16 nM and the Ki (κ opioid receptor (KOR) [6]; [11]) was 970 ± 21 nM. The Ki (sigma-1 receptor (σ1R) [7]) was over 10000 nM and the Ki (sigma-2 receptor (σ2R) [8]) was over 10 µM.

In the case of C[C@H]1[C@H]2Cc3ccc(O)cc3[C@]1(C)CCN2CCC(=O)Nc1ccccc1N [Compound 3, N-(2-aminophenyl)-3-((2R,6R,11R)-8-hydroxy-6,11-dimethyl-1,4,5,6-tetrahydro-2,6-methanobenzo[d]azocin-3(2H)-yl)propanamide], the Ki (μ opioid receptor (MOR) [1]) is reported as 5.96 ± 0.08 nM, the Ki (δ opioid receptor (DOR)) is reported as 155 ± 1.5 nM and the Ki (κ opioid receptor (KOR) [6]) is reported as 93 ± 0.63 nM. The Ki (sigma-1 receptor (σ1R) [7]) was over 10000 nM, the Ki (sigma-2 receptor (σ2R) [8]) was over 10 µM and the “functional profile at MOR” value (MOR) was “antagonist”.

In the case of C[C@H]1[C@H]2Cc3ccc(O)cc3[C@]1(C)CCN2CCC(=O)Nc1ccccn1 [Compound 7, 3-((2R,6R,11R)-8-hydroxy-6,11-dimethyl-1,4,5,6-tetrahydro-2,6-methanobenzo[d]azocin-3(2H)-yl)-N-(pyridin-2-yl)propanamide], the Ki (μ opioid receptor (MOR) [1]) is reported as 1.49 ± 0.24 nM, the Ki (δ opioid receptor (DOR)) is reported as 138 ± 5 nM and the Ki (κ opioid receptor (KOR) [6]) is reported as 64 ± 7 nM. It also gave a Ki (sigma-1 receptor (σ1R) [7]) of over 10000 nM, a Ki (sigma-2 receptor (σ2R) [8]) of over 10 µM and an IC50 (mouse vas deferens (MVD); Mus musculus) of 0.06688 ± 0.00038 µM. The “effect on electrically evoked MVD smooth muscle contractions” value (mouse vas deferens (MVD); result in words) was “concentration-dependent inhibitory effect”, the “Ke ± SEM (nM) Naloxone (MOR)” value (MOR) was 2.42 ± 0.45 nM and the “functional profile at MOR” value (MOR) was “agonist”. For the same compound, the “Ke ± SEM (nM) Nor-BNI (KOR)” value (KOR) was 68.18 ± 15.98 nM, the “effect on mean tail-flick latency” value (Male Swiss CD1 mice; i.p., 3, 4, and 5 mg/kg, compared with vehicle group) was “increased the mean tail-flick latency” and the “time of highest antinociceptive effect” value (Male Swiss CD1 mice; tail-flick, after i.p. injection) was 45 min and 30 to 45 min. The “restoring hyperalgesia of inflamed paws (PPT)” value (Male Wistar rats; 5000 and 2500 µg/kg, at 30 and 60 min) was “effective”, the “effect on noninflamed PPT” value (Male Wistar rats; in certain doses, compared with vehicle) was “significantly increase the noninflamed PPT” and the “restoring hyperalgesia of inflamed paws (PPT)” value (Male Wistar rats; lower doses of the range 625–5000 µg/kg) was “tendency of antinociceptive effect”.

Source: PMC10301092, “New Insights into the Opioid Analgesic Profile of cis-(−)-N-Normetazocine-derived Ligands” (Molecules, 2023)
